Reference: PubChem BioAssay (NCI)
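Five compound concentrations were applied to cells in 96-well plates for 48 hours; endpoints were derived by simple linear interpolation of the resulting dose-response curve. GI50: concentration for 50% inhibition of growth. TGI is the concentration that stops growth completely.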

Legend:
Assay in all cases: growth of human tumour cells (NCI), 48 h
[1] = tested on: SF-268 CNS
[2] = tested on: M14 melanoma
[3] = tested on: SF-539 CNS
[4] = tested on: T-47D breast
[5] = tested on: HT29 colon
[6] = tested on: K-562 leukemia
[7] = tested on: OVCAR-8 ovarian
[8] = tested on: NCI-H226 lung
[9] = tested on: SK-MEL-28 melanoma
[10] = tested on: IGROV1 ovarian
[11] = tested on: TK-10 renal
[12] = tested on: SK-MEL-5 melanoma
[13] = tested on: 786-0 renal
[14] = tested on: SF-295 CNS
[15] = tested on: HOP-62 NSCLC
[16] = tested on: NCI-H460 lung
[17] = tested on: CCRF-CEM leukemia
[18] = tested on: BT-549 breast
[19] = tested on: PC-3 prostate
[20] = tested on: U251 CNS
[21] = tested on: HS 578T breast
[22] = tested on: EKVX NSCLC
[23] = tested on: OVCAR-4 ovarian
[24] = tested on: UACC-62 melanoma
[25] = tested on: RPMI-8226 leukemia
[26] = tested on: MDA-MB-435
[27] = tested on: MOLT-4 leukemia
[28] = tested on: NCI-H23 lung
[29] = tested on: HL-60(TB) leukemia
[30] = tested on: HCC-2998 colon
[31] = tested on: A549 NSCLC
[32] = tested on: COLO 205 colon
[33] = tested on: SNB-19 CNS
[34] = tested on: SN12C renal
[35] = tested on: UACC-257 melanoma
[36] = tested on: HOP-92 NSCLC
[37] = tested on: SK-OV-3 ovarian
[38] = tested on: SR leukemia
[39] = tested on: DU-145 prostate
[40] = tested on: A498 renal
[41] = tested on: MDA-MB-231 breast
[42] = tested on: HCT-15 colon
[43] = tested on: ACHN renal
[44] = tested on: NCI-H522 lung
[45] = tested on: OVCAR-5 ovarian
[46] = tested on: UO-31 renal
[47] = tested on: SW-620 colon
[48] = tested on: RXF 393 renal
[49] = tested on: SNB-75 CNS
[50] = tested on: OVCAR-3 ovarian
[51] = tested on: MALME-3M melanoma
[52] = tested on: KM12 colon
[53] = tested on: SK-MEL-2 melanoma
[54] = tested on: LOX IMVI melanoma
[55] = tested on: NCI/ADR-RES ovarian
[56] = tested on: MCF7 breast
[57] = tested on: HCT-116 colon
[58] = tested on: CAKI-1 renal

C#CC[C@@H]1C[C@]2(C)[C@H]3CC[C@@H]4[C@H]5[C@H](C(=C)C)CC[C@]5(C(=O)O)CC[C@@]4(C)[C@]3(C)CC[C@H]2C(C)(C)[C@H]1O
GI50 [1]: 2.81 µM
TGI [1]: 10.1 µM
GI50 [2]: 2.05 µM
TGI [2]: 4.68 µM
GI50 [3]: 2.67 µM
TGI [3]: 7.88 µM
GI50 [4]: 1.79 µM
TGI [4]: 4.66 µM
GI50 [5]: 1.93 µM
TGI [5]: 3.69 µM
GI50 [6]: 2.32 µM
TGI [6]: 20.9 µM
GI50 [7]: 2.17 µM
TGI [7]: 4.81 µM
GI50 [8]: 2.05 µM
TGI [8]: 6.56 µM
GI50 [9]: 2.75 µM
TGI [9]: 7.6 µM
GI50 [10]: 4.21 µM
TGI [10]: 15.6 µM
GI50 [11]: 1.85 µM
TGI [11]: 4.44 µM
GI50 [12]: 2.27 µM
TGI [12]: 5.58 µM
GI50 [13]: 1.71 µM
TGI [13]: 3.4 µM
GI50 [14]: 1.45 µM
TGI [14]: 3.17 µM
GI50 [15]: 2.08 µM
TGI [15]: 5.28 µM
GI50 [16]: 1.62 µM
TGI [16]: 3.18 µM
GI50 [17]: 2.36 µM
TGI [17]: 9.02 µM
GI50 [18]: 2.52 µM
TGI [18]: 8.73 µM
GI50 [19]: 1.5 µM
TGI [19]: 3.52 µM
GI50 [20]: 1.57 µM
TGI [20]: 3.03 µM
GI50 [21]: 2.34 µM
TGI [21]: 7.01 µM
GI50 [22]: 2.63 µM
TGI [22]: 10.6 µM
GI50 [23]: 1.93 µM
TGI [23]: 3.83 µM
GI50 [24]: 2.64 µM
TGI [24]: 9.84 µM
GI50 [25]: 1.68 µM
TGI [25]: 14.7 µM
GI50 [26]: 3.03 µM
TGI [26]: 10.8 µM
GI50 [27]: 3.16 µM
TGI [27]: > 100 µM
GI50 [28]: 2.38 µM
TGI [28]: 6.95 µM
GI50 [29]: 2.57 µM
TGI [29]: > 100 µM
GI50 [30]: 4.44 µM
TGI [30]: 38.5 µM
GI50 [31]: 1.31 µM
TGI [31]: 2.8 µM
GI50 [32]: 2.09 µM
TGI [32]: 4.68 µM
GI50 [33]: 3.04 µM
TGI [33]: 13.4 µM
GI50 [34]: 2.98 µM
TGI [34]: 11.6 µM
GI50 [35]: 3.73 µM
TGI [35]: 13.4 µM
GI50 [36]: 1.7 µM
TGI [36]: 4.18 µM
GI50 [37]: 2.39 µM
TGI [37]: 5.25 µM
GI50 [38]: 3.12 µM
TGI [38]: 11.9 µM
GI50 [39]: 3.23 µM
TGI [39]: 10.8 µM
GI50 [40]: 1.88 µM
TGI [40]: 4.19 µM
GI50 [41]: 2.32 µM
TGI [41]: 6.11 µM
GI50 [42]: 1.89 µM
TGI [42]: 6.61 µM
GI50 [43]: 1.5 µM
TGI [43]: 3.18 µM
GI50 [44]: 2.95 µM
TGI [44]: 12.3 µM
GI50 [45]: 3.07 µM
TGI [45]: 11.6 µM
GI50 [46]: 1.83 µM
TGI [46]: 5.33 µM
GI50 [47]: 1.98 µM
TGI [47]: 4.28 µM
GI50 [48]: 1.7 µM
TGI [48]: 3.52 µM
GI50 [49]: 1.95 µM
TGI [49]: 4.12 µM
GI50 [50]: 1.7 µM
TGI [50]: 3.15 µM
GI50 [51]: 2.53 µM
TGI [51]: 5.83 µM
GI50 [52]: 1.64 µM
TGI [52]: 4.83 µM
GI50 [53]: 2.4 µM
TGI [53]: 6.78 µM
GI50 [54]: 2.63 µM
TGI [54]: 8.67 µM
GI50 [55]: 2.03 µM
TGI [55]: 5.24 µM

O=C(c1ccccc1)c1ccc(Cl)c([N+](=O)[O-])c1
GI50 [1]: 4.48 µM
TGI [1]: 18 µM
GI50 [2]: 4.37 µM
TGI [2]: 17.8 µM
GI50 [3]: 5.1 µM
TGI [3]: 19 µM
GI50 [4]: 7.54 µM
TGI [4]: 38.6 µM
GI50 [5]: 3.43 µM
TGI [5]: 11.1 µM
GI50 [6]: 3.44 µM
TGI [6]: 11.9 µM
GI50 [7]: 4.7 µM
TGI [7]: 17.7 µM
GI50 [8]: 19.8 µM
TGI [8]: 51.7 µM
GI50 [9]: 5.59 µM
TGI [9]: 19 µM
GI50 [10]: 7.92 µM
TGI [10]: 23.9 µM
GI50 [56]: 2.56 µM
TGI [56]: 9.74 µM
GI50 [57]: 4.78 µM
TGI [57]: 18.1 µM
GI50 [12]: 14.7 µM
TGI [12]: 28.3 µM
GI50 [13]: 21 µM
TGI [13]: 99.2 µM
GI50 [14]: 17.8 µM
TGI [14]: 34.5 µM
GI50 [15]: 13.8 µM
TGI [15]: 28.8 µM
GI50 [16]: 18.5 µM
TGI [16]: 39.3 µM
GI50 [17]: 3.18 µM
TGI [17]: 13.5 µM
GI50 [18]: 16.7 µM
TGI [18]: 31.5 µM
GI50 [19]: 8.22 µM
TGI [19]: 29.8 µM
GI50 [20]: 7.35 µM
TGI [20]: 20.3 µM
GI50 [21]: 17.5 µM
TGI [21]: 95.3 µM
GI50 [23]: 1.73 µM
TGI [23]: 3.13 µM
GI50 [25]: 3.64 µM
TGI [25]: 21.9 µM
GI50 [26]: 4.53 µM
TGI [26]: 17.1 µM
GI50 [27]: 4.17 µM
TGI [27]: 22.3 µM
GI50 [28]: 16.2 µM
TGI [28]: 32.8 µM
GI50 [29]: 2.56 µM
TGI [29]: 6.58 µM
GI50 [31]: 16.3 µM
TGI [31]: 40.5 µM
GI50 [32]: 5.01 µM
TGI [32]: 19.9 µM
GI50 [33]: 16 µM
TGI [33]: 30.2 µM
GI50 [34]: 3.81 µM
TGI [34]: 14.8 µM
GI50 [35]: 6.26 µM
TGI [35]: 21.6 µM
GI50 [37]: 15.8 µM
TGI [37]: 29.9 µM
GI50 [38]: 3.04 µM
TGI [38]: 9.66 µM
GI50 [39]: 3.69 µM
TGI [39]: 11.7 µM
GI50 [40]: 16 µM
TGI [40]: 30.9 µM
GI50 [41]: 3.61 µM
TGI [41]: 11.7 µM
GI50 [42]: 2.95 µM
TGI [42]: 9.86 µM
GI50 [43]: 7.14 µM
TGI [43]: 21.3 µM
GI50 [44]: 1.41 µM
TGI [44]: 6.18 µM
GI50 [45]: 4.38 µM
TGI [45]: 18.7 µM
GI50 [46]: 2.25 µM
TGI [46]: 5.34 µM
GI50 [47]: 5.27 µM
TGI [47]: 21.9 µM
GI50 [49]: 4.74 µM
TGI [49]: 18.9 µM
GI50 [50]: 3.83 µM
TGI [50]: 12.7 µM
GI50 [58]: 5.5 µM
TGI [58]: 20.2 µM
GI50 [52]: 5.97 µM
TGI [52]: 18.9 µM
GI50 [53]: 2.96 µM
TGI [53]: 6.89 µM
GI50 [54]: 2.43 µM
TGI [54]: 6.11 µM
GI50 [55]: 21.3 µM
TGI [55]: 58.3 µM
